Test results reported in patent US9289430B2, “Compounds and methods for inhibiting phosphate transport” (Ardelyx, Inc., priority 2010, dated 2016).

Columns and labels:
human NaP2b (SLC34A2) = target: T1, human NaP2b (SLC34A2) (Homo sapiens, UniProt O95436); test: NaP2b-mediated Pi transport: 33P phosphate uptake into transfected HEK293 cells; type: cell-based; conditions: human protein with threonine inserted after residue 37 and N39D, 100 uM KH2PO4, read-out: pIC50 range for human Nap2b (converted)
T1 construct: host or cells: HEK293
T1 sequence (O95436 1-690): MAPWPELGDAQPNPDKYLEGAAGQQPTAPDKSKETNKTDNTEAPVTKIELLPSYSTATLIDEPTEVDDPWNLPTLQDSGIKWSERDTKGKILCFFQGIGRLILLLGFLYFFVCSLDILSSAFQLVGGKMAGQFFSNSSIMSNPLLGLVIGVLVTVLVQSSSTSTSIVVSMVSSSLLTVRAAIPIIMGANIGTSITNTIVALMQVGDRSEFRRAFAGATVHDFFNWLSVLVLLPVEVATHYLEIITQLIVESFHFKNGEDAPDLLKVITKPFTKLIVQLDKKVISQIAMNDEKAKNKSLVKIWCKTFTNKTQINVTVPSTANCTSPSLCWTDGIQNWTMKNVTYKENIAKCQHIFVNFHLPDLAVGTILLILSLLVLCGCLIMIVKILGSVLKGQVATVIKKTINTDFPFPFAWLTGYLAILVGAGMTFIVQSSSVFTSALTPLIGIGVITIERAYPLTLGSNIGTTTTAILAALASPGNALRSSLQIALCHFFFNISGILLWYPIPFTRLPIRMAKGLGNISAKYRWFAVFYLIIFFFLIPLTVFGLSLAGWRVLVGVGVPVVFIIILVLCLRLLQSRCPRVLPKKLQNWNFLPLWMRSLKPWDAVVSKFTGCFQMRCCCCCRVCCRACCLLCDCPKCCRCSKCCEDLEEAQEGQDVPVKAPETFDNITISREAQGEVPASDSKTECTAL
Procedure, shortened: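 Transiently transfected HEK293 cells, human clone carrying Thr insertion after residue 37 and N39D; PiT transport silenced pharmacologically. ^33P-phosphate uptake in sodium buffer (100 uM KH2PO4, pH 7.4) versus choline buffer, 3-30 min at room temperature, twelve concentrations 0.1 nM–30 uM in duplicate; scintillation counting, pIC50 derived.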

rat NaP2b (SLC34A2) = target: T2, rat NaP2b (SLC34A2) (Rattus norvegicus, UniProt Q9JJ09); test: as above; type: cell-based; conditions: 100 uM KH2PO4, PiT-silencing agent, read-out: pIC50 range for rat Nap2b (converted)
T2 construct: host or cells: HEK293
T2 sequence (Q9JJ09 1-695): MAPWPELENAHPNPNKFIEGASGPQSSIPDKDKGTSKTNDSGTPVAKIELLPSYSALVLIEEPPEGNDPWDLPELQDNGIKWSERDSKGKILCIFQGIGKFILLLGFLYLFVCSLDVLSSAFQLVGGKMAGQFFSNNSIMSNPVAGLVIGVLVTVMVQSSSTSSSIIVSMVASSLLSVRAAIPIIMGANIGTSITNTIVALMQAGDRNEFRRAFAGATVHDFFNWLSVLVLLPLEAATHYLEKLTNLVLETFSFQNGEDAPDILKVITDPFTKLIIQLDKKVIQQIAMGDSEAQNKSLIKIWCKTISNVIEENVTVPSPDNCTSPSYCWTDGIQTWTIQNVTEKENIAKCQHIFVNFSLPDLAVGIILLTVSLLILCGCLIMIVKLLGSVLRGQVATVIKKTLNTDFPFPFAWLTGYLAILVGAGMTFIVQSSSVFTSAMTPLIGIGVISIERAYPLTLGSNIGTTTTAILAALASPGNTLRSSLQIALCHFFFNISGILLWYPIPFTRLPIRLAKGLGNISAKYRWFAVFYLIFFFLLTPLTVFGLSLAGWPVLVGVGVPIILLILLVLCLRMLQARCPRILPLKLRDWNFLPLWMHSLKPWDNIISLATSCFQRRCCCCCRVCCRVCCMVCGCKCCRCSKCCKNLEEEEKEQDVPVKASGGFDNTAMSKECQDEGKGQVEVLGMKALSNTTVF

[1] = Stability in simulated gastric and intestinal fluid; type: in vitro ADME; conditions: 6 hr, 1-20 μM; for % remaining, SGF: simulated gastric fluid with 3 mg/mL pepsin; for % remaining, SIF: simulated intestinal fluid with 3 mg/mL pancreatin
Description: Test compounds were incubated at 1-20 μM in simulated gastric fluid (SGF; standard USP solution with 3 mg/mL pepsin) or simulated intestinal fluid (SIF; standard USP solution with 3 mg/mL pancreatin) for 3 hr or 6 hr. HPLC-UV or HPLC-MS were used to determine test compound levels using peak area %. Results (Table 5) were reported as the percentage of test compound remaining after incubation in a given condition relative to test compound present at t=0 in the same condition.

[2] = Fecal recovery of orally administered compounds; type: in vivo, Sprague-Dawley rats; conditions: rats, oral gavage, nominal 10 mg/kg (actual 7.6-11 mg/kg), feces 0-48 hr after dosing
Description: Quantitative determination of test compound level in feces after oral gavage was performed using the same set of animals used to determine test compound concentration in plasma (Example 30). The animals were kept in metabolic cages and feces were collected from the time of dosing until 48 hr after dosing. Upon collection, feces was dried by lyophilization and ground to a visually homogenous powder. Duplicate samples of ground feces from each individual animal were weighed out and extracted using organic solvent. Extracted samples were then diluted into mobile phase and test compound levels were quantitatively determined by LC-MS/MS analysis as described in “Example 30” except that the standard curve was prepared in a feces matrix. Extraction conditions were not optimized for individual compounds, and thus may represent a minimal level of recovery.

| IC50 (human NaP2b (SLC34A2)) [nM] | IC50 (rat NaP2b (SLC34A2)) [nM] | % recovered in feces [2] [%] | SMILES | % remaining, SGF [1] [%] | % remaining, SIF [1] [%] |
| --- | --- | --- | --- | --- | --- |
| < 1000 | < 1000 | 9.5 | O=C(O)CCOCCOCCOCCNC(=O)Cc1cccc(SCc2cccc(C(=O)Nc3ccc(N4CCCCC4)cc3C(=O)Nc3ccn(-c4cccc(C(F)(F)F)c4)n3)c2)c1 [Example 26, 2-Oxo-1-(3-((3-((4-(piperidin-1-yl)-2-((1-(3-(trifluoromethyl)phenyl)-1H-pyrazol-3-yl)carbamoyl)phenyl)carbamoyl)benzyl)thio)phenyl)-6,9,12-trioxa-3-azapentadecan-15-oic acid] | 91 | 95 |
| < 1000 | < 1000 | 47 | CN(CCN1CCOCC1)C(=O)c1cccc(C(=O)Nc2ccc(N3CCCCC3)cc2C(=O)Nc2ccn(-c3cccc(C(F)(F)F)c3)n2)c1 [Example 11, N1-Methyl-N1-(2-morpholinoethyl)-N3-(4-(piperidin-1-yl)-2-((1-(3-(trifluoromethyl)phenyl)-1H-pyrazol-3-yl)carbamoyl)phenyl)isophthalamide] | – | – |

| SMILES | IC50 (human NaP2b (SLC34A2)) [nM] | IC50 (rat NaP2b (SLC34A2)) [nM] | % recovered in feces [2] [%] | % remaining, SGF [1] [%] | % remaining, SIF [1] [%] |
| --- | --- | --- | --- | --- | --- |
| CN(CCN1CCOCC1)C(=O)c1cccc(C(=O)Nc2ccc(Cl)cc2C(=O)Nc2ccn(-c3cccc(C(F)(F)F)c3)n2)c1 [Example 14, N1-(4-Chloro-2-((1-(3-(trifluoromethyl)phenyl)-1H-pyrazol-3-yl)carbamoyl)phenyl)-N3-methyl-N3-(2-morpholinoethyl)isophthalamide 2,2,2-trifluoroacetate] | < 1000 | < 1000 | 6.6 | 93 | 72 |
